The source of these data is PubChem BioAssay (NCI).

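1) Cells in 96-well plates. 2) Compound, 48 h, 5 concentrations. 3) Linear interpolation between surrounding doses. 4) Unreached endpoint = highest concentration. At the TGI there is no net growth.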

Assay in all cases: NCI-60 cell line screen, 48 h
Experiment [1] concerns ACHN renal.
Experiment [2] relates to CCRF-CEM leukemia.
Experiment [3] has as its system HCT-116 colon.
Experiment [4] deals with M14 melanoma.
For experiment [5], the system named is NCI-H226 lung.
Experiment [6] relates to NCI-H23 lung.
The subject of experiment [7] is NCI/ADR-RES ovarian.
Experiment [8] deals with OVCAR-8 ovarian.
The test system of experiment [9] is RXF 393 renal.
The subject of experiment [10] is SK-MEL-5 melanoma.

For `O=c1[nH]nc(-c2ccccc2)n1/N=C/c1cccc([N+](=O)[O-])c1`, the TGI in experiment [1], in experiment [2], in experiment [3], in experiment [4], in experiment [5] and in experiment [6] was above 100 µM in each case. Moreover, the TGI in experiment [7], in experiment [8], in [9] and in experiment [10] was above 100 µM in each case.
On to `COc1c2c(nc3ccccc13)-c1cc(C(CC(=O)OC(C)(C)C)C(=O)OC(C)C)c(CO)c(=O)n1C2` (stereo not given), for which the TGI in [1], in [2], in experiment [3], in experiment [4], in experiment [5] and in experiment [6] was above 100 µM each time. The TGI in experiment [7], in [8], in experiment [9] and in experiment [10] was above 100 µM throughout.
On to `CC(=O)O[C@H]1CC[C@@]2(C)C(=CC[C@@H]3[C@@H]2CC[C@]2(C)c4c(n[nH]c4C)C[C@@H]32)C1`, for which the TGI was 43.5 µM in experiment [1]; 25.1 µM in experiment [2]; 44.5 µM in experiment [3]; 37.3 µM in experiment [4]; 35.2 µM in [5]; 34.5 µM in experiment [6]. Further, the TGI was 85.1 µM in experiment [7], 92.9 µM in experiment [8], 23.9 µM in experiment [9] and 29.5 µM in experiment [10].
Turning to `Cc1nc2ccc(S(=O)(=O)NS(=O)(=O)c3ccc(-c4ccccc4)cc3)cc2c(=O)n1NS(=O)(=O)c1ccc(-c2ccccc2)cc1`, the TGI in experiment [1], in experiment [2], in experiment [3], in [4], in [5] and in experiment [6] was above 100 µM in each case. For the same molecule, the TGI in experiment [7], in experiment [8], in [9] and in experiment [10] was above 100 µM each time.
For `C=C1C[C@@H](O)[C@@H](Br)C(C)(C)[C@@]12C=CC(=O)CC2`, the TGI is above 100 µM in experiment [1]; above 100 µM in experiment [2]; above 100 µM in experiment [3]; above 100 µM in experiment [4]; above 26.3 µM in experiment [5]; above 100 µM in [6]. Besides, the TGI in experiment [7], in experiment [8], in experiment [9] and in experiment [10] was above 100 µM each time.
As to `CCOC(=O)C(=CNc1ccc(N(C2=NCC(C)S2)c2ccc(F)c(Cl)c2)cc1)C(=O)OCC` (stereo not given), the TGI in [1] was 39.8 µM; in experiment [2], 30.1 µM; in experiment [3], 31.4 µM; in experiment [4] it was 35.4 µM; in [5], 36.6 µM; in experiment [6] it was 33.9 µM. The TGI in experiment [7] worked out at 33.7 µM; in [8] it was 37.3 µM; in experiment [9] it was 21.3 µM; in experiment [10] it was 36.7 µM.
As to `COc1cc(/C=C2\C[C@H]3[C@@H]4CCC5=CC(=O)CC[C@]5(C)[C@H]4CC[C@]3(C)C2=O)cc(OC)c1OC`, the TGI in experiment [1] is above 100 µM; in experiment [2], above 100 µM; in experiment [3] it was above 40.8 µM; in [4], above 42.5 µM; in experiment [5], above 100 µM; in experiment [6] it was above 100 µM. Besides, the TGI is above 100 µM in experiment [7], above 100 µM in experiment [8], above 100 µM in experiment [9] and 15.9 µM in experiment [10].
`O=C(Cn1cc(Br)c(=O)[nH]c1=O)c1ccc(-c2ccccc2)cc1`: the TGI in [1] was above 100 µM; in experiment [2], above 20.2 µM; in experiment [3] it was above 100 µM; in [4], above 24.1 µM; in [5], above 100 µM; in [6], above 27.5 µM. Moreover, the TGI in experiment [7] is above 100 µM; in experiment [8] it was 76.5 µM; in experiment [9], above 100 µM; in experiment [10], above 29.9 µM.
For `c1ccc2cc3c(NC4=NCCO4)cccc3cc2c1`, the TGI in experiment [1] is above 100 µM; in experiment [2] it was 81.6 µM; in experiment [3], above 100 µM; in [4], above 100 µM; in experiment [5], above 100 µM; in experiment [6], above 100 µM. Also, the TGI in experiment [7], in [8], in [9] and in experiment [10] was above 100 µM throughout.
Take `O=C(c1cccs1)c1nccc2c1cnc1ccccc12`: the TGI in experiment [1], in [2], in experiment [3], in [4], in [5] and in [6] was above 100 µM in each case. Also, the TGI is above 100 µM in [7], above 100 µM in experiment [8], 21.2 µM in experiment [9] and above 100 µM in experiment [10].
For `CC1(C)OCC(C2OC3OC(C)(C)OC3C2c2ccccc2)O1` (stereo not given), the TGI in [1] was above 100 µM; in experiment [2], above 100 µM; in [3], above 100 µM; in experiment [4], 93.9 µM; in experiment [5], 93.6 µM; in experiment [6], 97.2 µM. The TGI in experiment [7] was above 100 µM; in experiment [8], above 100 µM; in [9], above 100 µM; in experiment [10], 33.2 µM.
Consider `Cc1ccc(S(=O)C[C@](NC(=O)OCc2ccccc2)(Sc2ccccc2)C(F)F)cc1` (stereo not given in full), for which the TGI is 45.5 µM in [1]; 5.56 µM in [2]; 34.8 µM in experiment [3]; above 100 µM in experiment [4]; 32.4 µM in experiment [5]; 36.4 µM in experiment [6]. Besides, the TGI turned out to be 54.6 µM in experiment [7], 48.5 µM in [8], 79.5 µM in experiment [9] and 28 µM in experiment [10].
With `C[C@@H](C[C@H]1OC(C)(C)O[C@@H]1C(C)(C)O)[C@H]1CC=C2[C@]3(C)[C@H](O)C[C@H]4C(C)(C)[C@H](O)CC[C@]4(C)[C@H]3CC[C@]21C`, the TGI in experiment [1] was 15.8 µM; in experiment [2], 14.1 µM; in [3], 16 µM; in experiment [4], 17.6 µM; in experiment [5] it was 20.6 µM; in [6], 26.1 µM. In addition, the TGI in experiment [7] came out at 21.9 µM; in experiment [8], 27.1 µM; in experiment [9], 12.1 µM; in [10], 18.3 µM.
Consider `CC(C)(C)C(=O)Oc1ccc(/C=C/C(=O)c2ccc(OC(=O)C(C)(C)C)cc2)cc1`, for which the TGI is above 100 µM in experiment [1]; 20.2 µM in experiment [2]; 71.4 µM in experiment [3]; above 100 µM in experiment [4]; above 100 µM in experiment [5]; above 100 µM in experiment [6]. Further, the TGI in [7] was above 100 µM; in experiment [8], above 100 µM; in experiment [9] it was 87.3 µM; in experiment [10], above 100 µM.
Regarding `Cc1ccc2nc3n[nH]c(N)c3nc2c1`, the TGI in [1], in experiment [2], in [3], in experiment [4], in [5] and in experiment [6] was above 100 µM throughout. For the same molecule, the TGI in experiment [7], in experiment [8], in experiment [9] and in experiment [10] was above 100 µM each time.
On to `O=[N+]([O-])c1ccc(C2ON=C(c3ccccc3)N2C23CC4CC(CC(C4)C2)C3)cc1` (stereo not given), for which the TGI in [1], in experiment [2], in [3], in experiment [4], in [5] and in experiment [6] was above 10 µM each time. Besides, the TGI in experiment [7], in experiment [8], in [9] and in experiment [10] was above 10 µM in each case.
Consider `Clc1ccc2c(NCCCCN3OC3c3ccccc3)ccnc2c1` (stereo not given), for which the TGI in experiment [1] was found to be 22.2 µM; in experiment [2] it was 8.09 µM; in experiment [3], 4.36 µM; in [4], 6.22 µM; in experiment [5] it was 37.6 µM; in experiment [6], 35.2 µM. The TGI in experiment [7] is 40.2 µM; in [8], 13.1 µM; in experiment [9], 12 µM; in experiment [10], 11.4 µM.
With `COc1ccc(C2=[S+]C(c3ccccc3)(c3ccccc3)c3ccccc32)cc1`, the TGI in [1] was 86.1 µM; in experiment [2], 88.9 µM; in [3], 24.3 µM; in experiment [4], 31.4 µM; in experiment [5], 31.3 µM; in experiment [6], 74.8 µM. The TGI is above 100 µM in [7], above 100 µM in experiment [8], 26 µM in experiment [9] and 31.5 µM in experiment [10].
In the case of `NC(=O)CSc1c2cc(O)ccc2nc2ccc(O)cc12`, the TGI in experiment [1], in experiment [2], in experiment [3], in experiment [4], in experiment [5] and in experiment [6] was above 10 µM each time. The TGI in experiment [7], in experiment [8], in [9] and in experiment [10] was above 10 µM each time.
As for `N#Cc1c(Cl)c2cccnc2n2c1nc1ccccc12`, the TGI in experiment [1] is 3.2 µM; in experiment [2], 4.02 µM; in [3], 3.19 µM; in [4], above 21.4 µM; in experiment [5], 9.58 µM; in experiment [6], 4.28 µM. Further, the TGI in experiment [7] is 6.55 µM; in experiment [8], 3.77 µM; in [9] it was 3.44 µM; in [10] it was 2.6 µM.
Consider `CCCCCCCCC/C=C1/CC(CO)(COC(=O)CC(C(C)C)C(C)C)OC1=O` (stereo not given), for which the TGI came to 18.6 µM in experiment [1]; 25 µM in experiment [2]; 26.6 µM in experiment [3]; 20.4 µM in experiment [4]; 21.5 µM in experiment [5]; 26.9 µM in experiment [6]. Besides, the TGI worked out at 28.1 µM in experiment [7], 29.8 µM in experiment [8], 27.8 µM in experiment [9] and 21.9 µM in experiment [10].
Turning to `COC(=O)C1Cc2c(OC)ccc(OC)c2C(O)C1C(=O)OC` (stereo not given), the TGI in experiment [1], in [2], in experiment [3], in experiment [4], in [5] and in experiment [6] was above 100 µM each time. Moreover, the TGI in experiment [7], in experiment [8], in experiment [9] and in [10] was above 100 µM throughout.
Regarding `Clc1ccc(-c2cc(-c3cc4cc(Br)ccc4nc3Cl)on2)cc1`, the TGI in experiment [1] was above 50 µM; in experiment [2], 36.2 µM; in experiment [3] it was 30.7 µM; in [4], 37.9 µM; in experiment [5], 27.4 µM; in [6] it was 46.5 µM. For the same molecule, the TGI was 37.9 µM in experiment [7], above 50 µM in experiment [8], 43.9 µM in experiment [9] and 19.6 µM in [10].
In the case of `C[C@H]1C2Cc3cc(O)ccc3[C@@]1(C)CCN2CCc1ccc(N)cc1`, the TGI in experiment [1] was above 100 µM; in experiment [2], 69 µM; in [3] it was 31.2 µM; in [4] it was 32.4 µM; in [5], above 100 µM; in [6] it was above 100 µM. The TGI in [7] is 63.2 µM; in experiment [8] it was 45.8 µM; in experiment [9], above 100 µM; in [10] it was 27.5 µM.
As for `O=Cc1ccc(OC[C@H]2COC(=O)N2)cc1`, the TGI in experiment [1], in experiment [2], in [3], in experiment [4], in experiment [5] and in experiment [6] was above 100 µM throughout. The TGI in [7], in experiment [8], in [9] and in experiment [10] was above 100 µM each time.
Turning to `COc1cc(/C=N/N=C(\N)NO)cc(OC)c1OC`, the TGI in experiment [1] was 72 µM; in [2], above 100 µM; in experiment [3], above 100 µM; in experiment [4], above 100 µM; in [5] it was 73.8 µM; in experiment [6], above 100 µM. The TGI was 36.3 µM in experiment [7], 37.9 µM in [8], above 100 µM in [9] and 44.7 µM in experiment [10].
